Test system: mitochondrial Ca2+ concentration ([Ca2+]mito)
Test: Mitochondrial Ca2+ measurement with mt-pericam in cultured SAN cells
Assay type: cell-based, mouse
Conditions: Ru360 dialysis
Procedure: SAN cells were placed in Tyrode's solution at 36±0.5° C. and were identified by their characteristic morphology (spindle or spider shape) and spontaneous activity. SAN cells were identified electrophysiologically by spontaneous action potentials with a slow depolarizing phase 4 and the hyperpolarization-activated current (If).^27 Spontaneous action potentials, If and ICa were recorded using the perforated (amphotericin B or β-escin in studies requiring dialysis of Ru360 and/or ATP) patch-clamp technique^28 on single SAN cells at 36±0.5° C. in Tyrode's solution. Intracellular Ca^2+ transients were recorded from single SAN cells using Fura-2 AM excited at 340 nm and 380 nm and emitted and 510 nm. Endogenous NADH from single SAN cells was measured by excitation at 350 nm and recording emitted light at 460 nm.^29 Mitochondrial Ca^2+ was measured at 535 nm from mt-pericam expressing SAN cells exited at 415 nm^20. Mitochondrial Ca^2+ entry was measured in cell membrane permeabilized cardiomyocytes isolated from DN-MCU transgenic, wild type mice and from HEK293 cells using Calcium green-5N^30.
Freshly isolated mouse SAN tissue was cut into small pieces and put into 35 mm tissue culture plates with DMEM. […] Expression of the recombinant ratio-5mt-pericam and DN-MCU in SAN cells was detected by GFP fluorescence. […]

In the case of (μ)[(HCO2)(NH3)4Ru]2OCl3) [Ru360], the “ISO-induced increase in [Ca2+]mito” value is reported as “prevented”.
